Reference: patent US12570662B2, “Substituted pyrrolo[1,2-b]pyridazines as bifunctional degraders of interleukin-1 receptor-associated kinases” (Nurix Therapeutics, Inc., priority 2021, dated 2026)

Target: T1, IRAK4 (Homo sapiens, UniProt Q9NWZ3)
T1 construct: C-terminal HiBiT-tagged Jurkat cells (polyclonal cell line or clone 8D5); endogenous in cells; host or cells: Jurkat cells (polyclonal cell line or clone 8D5), HiBiT-tagged
T1 sequence (Q9NWZ3 1-460): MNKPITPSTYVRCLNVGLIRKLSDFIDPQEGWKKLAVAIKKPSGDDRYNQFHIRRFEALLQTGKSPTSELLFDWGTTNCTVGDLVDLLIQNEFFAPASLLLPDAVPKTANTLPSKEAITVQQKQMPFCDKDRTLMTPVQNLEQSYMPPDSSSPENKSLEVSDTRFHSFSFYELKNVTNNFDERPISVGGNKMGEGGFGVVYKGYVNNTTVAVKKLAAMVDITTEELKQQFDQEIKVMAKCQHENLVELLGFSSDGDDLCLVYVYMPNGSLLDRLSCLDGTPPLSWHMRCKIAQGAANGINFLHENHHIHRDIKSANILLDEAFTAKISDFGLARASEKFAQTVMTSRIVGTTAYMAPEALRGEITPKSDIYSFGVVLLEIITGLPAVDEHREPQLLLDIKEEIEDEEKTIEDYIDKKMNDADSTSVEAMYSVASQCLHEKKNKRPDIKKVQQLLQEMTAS
Experiment: IRAK4 Degradation HiBit Assay
Format: cell-based
Settings: C-terminal HiBiT-tagged Jurkat cells, 4 hrs incubation; for DC50: % IRAK4 remaining, four-parameter fit (IC50 used as DC50); for Dmax: from fit of % IRAK4 remaining, read-out: Dmax
Protocol: Compound dilution series (11-point, 3.16-fold dilutions in DMSO, columns 1-11 and 12-22) at 500× the final required concentrations were prepared in Labcyte LDV 384-well plates (cat. no. LP-0200) using a Labcyte Echo 550 Liquid Handler. The 500× solutions ranged from 5 mM to 0.5 μM (final assay concentration range 10 μM to 0.1 nM). Using the Echo, the 500× solutions were stamped into white, 384-well assay plates (Corning, cat. no. 3570) at 60 nL/well. The following assay plate controls were also stamped at 60 nL/well: DMSO in wells E23-P23 (NC, Negative Control, maximum signal), 5 mM solution control compound al in wells A23-D23 and M24-P24 (AC, Active Control, minimum signal/background, 10 μM final assay concentration), control compound al dilution series in wells […] (12-point, 4-fold dilutions). C-terminal HiBiT-tagged Jurkat cells (polyclonal cell line or clone 8D5) were plated at 1×10^6 cells/mL, 30 μL/well (3×10^4 cells/well) in complete RPMI (10% FBS, 1% L-glutamine). Cells were incubated for 4 hrs at 32° C./6% CO2. Compound al has the following structure:
Following incubation, 30 μL of complete Nano-Glo HiBiT Lytic Detection Reagent (Nano-Glo HiBiT Lytic Buffer with 1:50 Nano-Glo HiBiT Lytic Substrate and 1:100 LgBiT Protein; Promega cat. no. N3040) was added. Cells were further incubated for 10 min at room temperature (RT). Luminescence units (LU) were read on an EnVision plate reader (Perkin Elmer, 0.1 sec per well). Percent IRAK4 remaining per sample was calculated as follows: […]
Using Graphpad Prism, % IRAK4 remaining values were plotted as a function of compound concentration. To determine DC50 and Dmax values, resulting curves were fit to the Prism curve-fitting equation “log (inhibitor) vs response-Variable slope (four parameters)” (reported best fit value IC50 used as DC50). Table 1 summarizes the biological data of Compounds of Examples 1-137 and 142-145 obtained from the assays described herein.

Structure (SMILES) | DC50 [nM] | Dmax [%]
N#Cc1cnn2c(-c3cc(NC4CCOCC4)c(-c4nnc(C56CCC(C(=O)N7CCN(c8ccc(C9CCC(=O)NC9=O)cn8)CC7)(CC5)CC6)s4)cn3)ccc2c1 (racemic) [Example 22, rac-7-(5-{5-[4-(4-{5-[(3R)-2,6-dioxopiperidin-3-yl]pyridin-2-yl}piperazine-1-carbonyl)bicyclo[2.2.2]octan-1-yl]-1,3,4-thiadiazol-2-yl}-4-[(oxan-4-yl)amino]pyridin-2-yl)pyrrolo[1,2-b]pyridazine-3-carbonitrile] | 23 | 84
N#Cc1cnn2c(-c3cc(NC4CCOCC4)c(-c4nnc(C56CCC(CN7CCC(c8ccc(C9CCC(=O)NC9=O)cn8)CC7)(CC5)CC6)s4)cn3)ccc2c1 (racemic) [Example 23, rac-7-[5-(5-{4-[(4-{5-[(3R)-2,6-dioxopiperidin-3-yl]pyridin-2-yl}piperidin-1-yl)methyl]bicyclo[2.2.2]octan-1-yl}-1,3,4-thiadiazol-2-yl)-4-[(oxan-4-yl)amino]pyridin-2-yl]pyrrolo[1,2-b]pyridazine-3-carbonitrile] | 18 | 90
N#Cc1cnn2c(-c3cc(NC4CCOCC4)c(-c4nnc(C56CCC(CN7CCC(Oc8ccc(C9CCC(=O)NC9=O)cn8)CC7)(CC5)CC6)s4)cn3)ccc2c1 (racemic) [Example 24, rac-7-{5-[5-(4-{[4-({5-[(3R)-2,6-dioxopiperidin-3-yl]pyridin-2-yl}oxy)piperidin-1-yl]methyl}bicyclo[2.2.2]octan-1-yl)-1,3,4-thiadiazol-2-yl]-4-[(oxan-4-yl)amino]pyridin-2-yl}pyrrolo[1,2-b]pyridazine-3-carbonitrile] | 77 | 83
CNc1cc(-c2ccc3cc(C#N)cnn23)ncc1-c1nnc(C23CCC(CN4CCN(c5ccc(C6CCC(=O)NC6=O)cn5)CC4)(CC2)CC3)s1 (racemic) [Example 25, rac-7-[5-(5-{4-[(4-{5-[(3R)-2,6-dioxopiperidin-3-yl]pyridin-2-yl}piperazin-1-yl)methyl]bicyclo[2.2.2]octan-1-yl}-1,3,4-thiadiazol-2-yl)-4-(methylamino)pyridin-2-yl]pyrrolo[1,2-b]pyridazine-3-carbonitrile] | 53 | 106
N#Cc1cnn2c(-c3cc(NC4CCOCC4)c(-c4nnc(C56CCC(CN7CCN(c8ccc(C9CCC(=O)NC9=O)cn8)CC7)(CC5)CC6)s4)cn3)ccc2c1 (racemic) [Example 26, rac-7-[5-(5-{4-[(4-{5-[(3R)-2,6-dioxopiperidin-3-yl]pyridin-2-yl}piperazin-1-yl)methyl]bicyclo[2.2.2]octan-1-yl}-1,3,4-thiadiazol-2-yl)-4-[(oxan-4-yl)amino]pyridin-2-yl]pyrrolo[1,2-b]pyridazine-3-carbonitrile] | 120 | 80
CNc1cc(-c2ccc3cc(C#N)cnn23)ncc1-c1nnc(C23CCC(C(=O)N4CCN(c5ccc(C6CCC(=O)NC6=O)cn5)CC4)(CC2)CC3)s1 (racemic) [Example 27, rac-7-(5-{5-[4-(4-{5-[(3R)-2,6-dioxopiperidin-3-yl]pyridin-2-yl}piperazine-1-carbonyl)bicyclo[2.2.2]octan-1-yl]-1,3,4-thiadiazol-2-yl}-4-(methylamino)pyridin-2-yl)pyrrolo[1,2-b]pyridazine-3-carbonitrile] | 12 | 101
N#Cc1cnn2c(-c3cc(NC4CCOCC4)c(-c4nnc(N5CC6CCC(C5)N6C(=O)C5CCN(c6ccc([C@@H]7CCC(=O)NC7=O)cn6)CC5)s4)cn3)ccc2c1 (racemic) [Example 29, rac-7-(5-{5-[8-(1-{5-[(3R)-2,6-dioxopiperidin-3-yl]pyridin-2-yl}piperidine-4-carbonyl)-3,8-diazabicyclo[3.2.1]octan-3-yl]-1,3,4-thiadiazol-2-yl}-4-[(oxan-4-yl)amino]pyridin-2-yl)pyrrolo[1,2-b]pyridazine-3-carbonitrile] | 9 | 79
CNc1cc(-c2ccc3cc(C#N)cnn23)ncc1-c1nnc(C2CCC(C(=O)N3CCN(c4ccc([C@@H]5CCC(=O)NC5=O)cc4)CC3)CC2)s1 (mixture of isomers) [Example 32, 7-[4-(methylamino)-5-{5-[(1rs&,4rs&)-4-(4-{4-[(3RS)-2,6-dioxopiperidin-3-yl]phenyl}piperazine-1-carbonyl)cyclohexyl]-1,3,4-thiadiazol-2-yl}pyridin-2-yl]pyrrolo[1,2-b]pyridazine-3-carbonitrile] | 10 | 54
N#Cc1cnn2c(-c3cc(NC4CCOCC4)c(-c4nnc(N5CCC6(CCN(CC7CCN(c8ccc(C9CCC(=O)NC9=O)cn8)CC7)CC6)CC5)s4)cn3)ccc2c1 (racemic) [Example 33, rac-7-[5-(5-{9-[(1-{5-[(3R)-2,6-dioxopiperidin-3-yl]pyridin-2-yl}piperidin-4-yl)methyl]-3,9-diazaspiro[5.5]undecan-3-yl}-1,3,4-thiadiazol-2-yl)-4-[(oxan-4-yl)amino]pyridin-2-yl]pyrrolo[1,2-b]pyridazine-3-carbonitrile] | 45 | 101
N#Cc1cnn2c(-c3cc(NC4CCOCC4)c(-c4nnc(N5CC6CCC(C5)N6CC5CCN(c6ccc([C@@H]7CCC(=O)NC7=O)cn6)CC5)s4)cn3)ccc2c1 (racemic) [Example 34, rac-7-[5-(5-{8-[(1-{5-[(3R)-2,6-dioxopiperidin-3-yl]pyridin-2-yl}piperidin-4-yl)methyl]-3,8-diazabicyclo[3.2.1]octan-3-yl}-1,3,4-thiadiazol-2-yl)-4-[(oxan-4-yl)amino]pyridin-2-yl]pyrrolo[1,2-b]pyridazine-3-carbonitrile] | 24 | 97
CCN(C(=O)C1CCN(c2ccc([C@@H]3CCC(=O)NC3=O)cn2)CC1)[C@H]1CC[C@H](c2nnc(-c3cnc(-c4ccc5cc(C#N)cnn45)cc3NC)s2)CC1 (racemic) [Example 35, 1-{5-[(3RS)-2,6-dioxopiperidin-3-yl]pyridin-2-yl}-N-ethyl-N-[(1r,4r)-4-[5-(6-{3-cyanopyrrolo[1,2-b]pyridazin-7-yl}-4-(methylamino)pyridin-3-yl)-1,3,4-thiadiazol-2-yl]cyclohexyl]piperidine-4-carboxamide] | 27 | 105
CCN(CC1CCN(c2ccc([C@@H]3CCC(=O)NC3=O)cn2)CC1)[C@H]1CC[C@H](c2nnc(-c3cnc(-c4ccc5cc(C#N)cnn45)cc3NC)s2)CC1 (racemic) [Example 36, 7-[4-(methylamino)-5-{5-[(1r,4r)-4-{[(1-{5-[(3RS)-2,6-dioxopiperidin-3-yl]pyridin-2-yl}piperidin-4-yl)methyl](ethyl)amino}cyclohexyl]-1,3,4-thiadiazol-2-yl}pyridin-2-yl]pyrrolo[1,2-b]pyridazine-3-carbonitrile] | 20 | 105
N#Cc1cnn2c(-c3cc(NC4CCOCC4)c(-c4nnc(N5CCN(C(=O)C6CCN(c7ccc(C8CCC(=O)NC8=O)cn7)CC6)CC5)s4)cn3)ccc2c1 (racemic) [Example 37, rac-7-(5-{5-[4-(1-{5-[(3R)-2,6-dioxopiperidin-3-yl]pyridin-2-yl}piperidine-4-carbonyl)piperazin-1-yl]-1,3,4-thiadiazol-2-yl}-4-[(oxan-4-yl)amino]pyridin-2-yl)pyrrolo[1,2-b]pyridazine-3-carbonitrile] | 13 | 108
